Experimental data: ChEMBL document CHEMBL1201862, “PubChem BioAssay data set” (2004)
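Cells were grown in 96-well plates and exposed to each compound for 48 hours at five concentrations; endpoints were interpolated linearly between bracketing concentrations, or set to the highest concentration if not reached. At the GI50, growth is halved.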 The source made the active and inactive calls. Rule as the data show it: active = GI50 up to about 1.1 µM and inactive = higher.

Experiments:
Assay in all cases: DTP human tumour cell line panel, 48 h
ACHN = test system: ACHN
HOP-92 = test system: HOP-92
IGROV-1 = test system: IGROV-1
K562 = test system: K562
LOX IMVI = test system: LOX IMVI
NCI-H460 = test system: NCI-H460
OVCAR-4 = test system: OVCAR-4
RPMI-8226 = test system: RPMI-8226
RXF 393 = test system: RXF 393
SF-268 = test system: SF-268
SF-539 = test system: SF-539
SR = test system: SR
SW-620 = test system: SW-620
UACC-62 = test system: UACC-62
UO-31 = test system: UO-31
EKVX = test system: EKVX
A498 = test system: A498

Measured: GI50

O=C(c1cccs1)N(C(=S)N1CCN(c2ccccn2)CC1)c1ccccc1
inactive: ACHN > 100 µM | HOP-92 > 100 µM | IGROV-1 > 100 µM | K562 > 100 µM | LOX IMVI > 100 µM | NCI-H460 > 100 µM | OVCAR-4 > 100 µM | RPMI-8226 > 100 µM | RXF 393 35 µM | SF-268 87.3 µM | SF-539 > 100 µM | SR > 100 µM | SW-620 > 100 µM | UACC-62 46.5 µM | UO-31 39.2 µM

c1ccc2c(c1)CCc1cc3cc4c(nc3nc1-2)-c1ccccc1CC4
inactive: ACHN > 100 µM | EKVX > 100 µM | IGROV-1 > 100 µM | K562 > 100 µM | LOX IMVI > 100 µM | NCI-H460 > 100 µM | RPMI-8226 > 100 µM | RXF 393 69.7 µM | SF-268 83 µM | SF-539 > 100 µM | SR > 100 µM | SW-620 > 100 µM | UACC-62 > 100 µM | UO-31 > 100 µM

C/C(=N\NS(=O)(=O)c1ccc(C)cc1)c1cc2ccccc2n1C
inactive: A498 > 100 µM | ACHN > 100 µM | EKVX 74.3 µM | IGROV-1 > 100 µM | K562 > 100 µM | LOX IMVI > 100 µM | NCI-H460 > 100 µM | OVCAR-4 > 100 µM | RPMI-8226 > 100 µM | SF-268 66.2 µM | SF-539 > 100 µM | SR > 100 µM | SW-620 > 100 µM | UACC-62 76.2 µM | UO-31 > 100 µM

Cc1ccc(Cl)c2c(=O)cc(-c3ccccc3)[nH]c12
inactive: ACHN 42.3 µM | HOP-92 38.8 µM | IGROV-1 85.3 µM | K562 49.2 µM | LOX IMVI 39.7 µM | NCI-H460 36.2 µM | OVCAR-4 55.3 µM | RPMI-8226 40.8 µM | RXF 393 29.2 µM | SF-268 58.6 µM | SF-539 80.2 µM | SR 25.1 µM | SW-620 67.5 µM | UACC-62 42.5 µM | UO-31 37.9 µM

O=C1C(Cl)=C(NCCOCCO)C(=O)c2c(O)ccc(O)c21
inactive: ACHN 15.4 µM | HOP-92 24.3 µM | IGROV-1 5.6 µM | K562 2.65 µM | LOX IMVI 3.61 µM | NCI-H460 3.36 µM | OVCAR-4 2.37 µM | RPMI-8226 3.1 µM | RXF 393 14.1 µM | SF-539 4.53 µM | SR 6.53 µM | SW-620 3.55 µM | UACC-62 3.24 µM | UO-31 16 µM

O=C1C=C(c2[nH]c3ccccc3c2C2=CC(=O)c3ccccc3C2=O)C(=O)c2ccccc21
inactive: A498 > 100 µM | ACHN 44.9 µM | EKVX 46.5 µM | IGROV-1 30.1 µM | K562 22.3 µM | LOX IMVI 22.1 µM | NCI-H460 35.6 µM | OVCAR-4 33.7 µM | RPMI-8226 33 µM | RXF 393 39.7 µM | SF-268 34.4 µM | SF-539 34.8 µM | SR 20.6 µM | SW-620 66.5 µM | UACC-62 24.9 µM | UO-31 > 100 µM

CC1=C(C(=O)Nc2ccccc2C)C(c2ccco2)C(C(=O)Nc2ccccc2C)=C(C)N1C
inactive: ACHN > 100 µM | EKVX > 100 µM | HOP-92 > 100 µM | IGROV-1 > 100 µM | K562 85.5 µM | LOX IMVI > 100 µM | NCI-H460 > 100 µM | OVCAR-4 > 100 µM | RPMI-8226 > 100 µM | RXF 393 > 100 µM | SF-268 > 100 µM | SF-539 > 100 µM | SR 72.8 µM | SW-620 > 100 µM | UACC-62 > 100 µM | UO-31 > 100 µM

NCCCOc1ccc([N+](=O)[O-])cc1Cl
inactive: ACHN > 100 µM | HOP-92 68.9 µM | IGROV-1 > 100 µM | K562 85.9 µM | NCI-H460 > 100 µM | OVCAR-4 > 100 µM | RPMI-8226 51.8 µM | SF-268 > 100 µM | SF-539 > 100 µM | SR > 100 µM | SW-620 > 100 µM | UACC-62 > 100 µM | UO-31 81.8 µM

CCC(=O)CC(=O)CCC(=O)Nc1cc(C)ccc1C
inactive: A498 > 100 µM | ACHN > 100 µM | EKVX > 100 µM | HOP-92 > 100 µM | IGROV-1 > 100 µM | K562 > 100 µM | LOX IMVI > 100 µM | NCI-H460 > 100 µM | RPMI-8226 > 100 µM | RXF 393 > 100 µM | SF-268 > 100 µM | SF-539 > 100 µM | SR > 100 µM | SW-620 > 100 µM | UACC-62 > 100 µM | UO-31 > 100 µM
